One assay concerns the target T1, Human mTOR (FLAG-TOR) (Homo sapiens, UniProt P42345).
T1 construct: FLAG
Nature of the assay: Human mTOR kinase assay with purified enzyme, DELFIA format. It counts as biochemical. The gist of the method:
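Purified FLAG-mTOR in HEPES pH 7.4 buffer with 10 mM MnCl2 was preincubated with inhibitor and reacted 2 h at room temperature with His6-S6K substrate, then stopped with EDTA/EGTA. Phospho-T389 S6K detected by DELFIA with Eu-labelled antibody (40 ng/mL) after plate capture; inhibition computed from signal.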

Assay [1] concerns the target T2, PI3K (Homo sapiens, UniProt P42336).
T2 construct: PI3 Kinase α IC50; other: PI3 Kinase α; other: PI3 Kinase α isoform, fluorescence polarization
Nature of the assay: Fluorescence polarization assay for PI3K. It counts as biochemical. The conditions noted are these: read-out: PI3 Kinase α IC50. The gist of the method:
(§1)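 PI3K was preincubated with compound (final DMSO 1%), and the reaction was started with PIP2/ATP substrate and run 30–60 min. It was stopped with a detector mix giving 10 nM red probe and 70 nM GST-GRP.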
In general terms: In fluorescence polarisation assays a small probe gives low polarisation when free and higher when bound to something large.

Assay [2] has as its target T3, PI3K (Homo sapiens, UniProt P48736).
T3 construct: PI3 Kinase γ IC50; other: PI3 Kinase γ; other: PI3 Kinase γ isoform, fluorescence polarization
Kind of assay: Fluorescence polarization assay for PI3K. In kind it is biochemical. The following applies: read-out: PI3 Kinase γ IC50. An outline of the steps: as §1

For a further assay, the system named is prostate line LNCap. Kind of assay: In vitro cell culture growth assay (MTS), LNCap. It counts as cell-based. The conditions noted are these: Homo sapiens, LNCaP, 72 h, LNCap cells, three days after drug treatment. An outline of the steps:
(§2)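 Growth is reported as percent of vehicle-treated control grown in the same plate, with viability determined by metabolic conversion of MTS dye and absorbance read at 490 nm. Compounds were applied one day after plating and left for three days.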

The next assay has as its system breast line MDA468. Kind of assay: In vitro cell culture growth assay (MTS), MDA468. In kind it is cell-based. The following applies: Homo sapiens, 72 h, MDA468 cells, three days after drug treatment. An outline of the steps:
as §2

[3] abbreviates: purified human mTOR enzyme, DELFIA format.
Where [4] appears, read: PI3 Kinase α isoform, fluorescence polarization.
Setting [5] is: PI3 Kinase γ isoform, fluorescence polarization.

The structures appear in SMILES notation. Where two headings read alike, the source gives them in different places.

The IC50 is the point on the concentration scale where inhibition reaches its midpoint.

T3 sequence (P48736 whole entry, canonical isoform): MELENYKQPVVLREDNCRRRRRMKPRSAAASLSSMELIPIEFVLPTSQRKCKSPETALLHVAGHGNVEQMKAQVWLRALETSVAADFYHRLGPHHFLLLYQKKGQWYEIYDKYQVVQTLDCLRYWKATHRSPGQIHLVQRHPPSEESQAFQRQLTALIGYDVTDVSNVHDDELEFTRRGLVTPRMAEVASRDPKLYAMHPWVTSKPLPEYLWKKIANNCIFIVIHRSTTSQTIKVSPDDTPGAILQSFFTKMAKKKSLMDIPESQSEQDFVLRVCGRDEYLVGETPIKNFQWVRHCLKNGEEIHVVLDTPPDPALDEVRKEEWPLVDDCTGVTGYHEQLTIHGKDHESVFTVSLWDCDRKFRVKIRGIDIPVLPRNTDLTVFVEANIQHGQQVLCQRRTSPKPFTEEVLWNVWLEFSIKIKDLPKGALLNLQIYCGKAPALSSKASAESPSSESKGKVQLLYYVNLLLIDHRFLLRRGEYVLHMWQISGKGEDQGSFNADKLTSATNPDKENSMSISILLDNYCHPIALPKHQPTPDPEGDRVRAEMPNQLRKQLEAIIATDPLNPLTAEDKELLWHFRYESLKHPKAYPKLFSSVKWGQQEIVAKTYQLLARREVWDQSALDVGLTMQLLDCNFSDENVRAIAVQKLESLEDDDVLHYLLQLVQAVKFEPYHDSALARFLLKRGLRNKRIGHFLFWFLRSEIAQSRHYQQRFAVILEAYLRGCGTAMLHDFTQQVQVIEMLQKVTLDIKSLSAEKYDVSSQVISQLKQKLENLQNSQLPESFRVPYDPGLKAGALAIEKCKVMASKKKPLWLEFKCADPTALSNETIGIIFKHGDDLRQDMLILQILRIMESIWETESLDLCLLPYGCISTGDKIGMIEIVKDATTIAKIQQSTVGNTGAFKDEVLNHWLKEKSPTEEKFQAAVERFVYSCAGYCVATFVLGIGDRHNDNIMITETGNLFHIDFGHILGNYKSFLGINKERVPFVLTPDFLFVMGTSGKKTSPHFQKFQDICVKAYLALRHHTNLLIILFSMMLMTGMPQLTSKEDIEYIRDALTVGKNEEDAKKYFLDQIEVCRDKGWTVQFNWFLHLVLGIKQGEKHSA
T2 sequence (P42336 whole entry, canonical isoform): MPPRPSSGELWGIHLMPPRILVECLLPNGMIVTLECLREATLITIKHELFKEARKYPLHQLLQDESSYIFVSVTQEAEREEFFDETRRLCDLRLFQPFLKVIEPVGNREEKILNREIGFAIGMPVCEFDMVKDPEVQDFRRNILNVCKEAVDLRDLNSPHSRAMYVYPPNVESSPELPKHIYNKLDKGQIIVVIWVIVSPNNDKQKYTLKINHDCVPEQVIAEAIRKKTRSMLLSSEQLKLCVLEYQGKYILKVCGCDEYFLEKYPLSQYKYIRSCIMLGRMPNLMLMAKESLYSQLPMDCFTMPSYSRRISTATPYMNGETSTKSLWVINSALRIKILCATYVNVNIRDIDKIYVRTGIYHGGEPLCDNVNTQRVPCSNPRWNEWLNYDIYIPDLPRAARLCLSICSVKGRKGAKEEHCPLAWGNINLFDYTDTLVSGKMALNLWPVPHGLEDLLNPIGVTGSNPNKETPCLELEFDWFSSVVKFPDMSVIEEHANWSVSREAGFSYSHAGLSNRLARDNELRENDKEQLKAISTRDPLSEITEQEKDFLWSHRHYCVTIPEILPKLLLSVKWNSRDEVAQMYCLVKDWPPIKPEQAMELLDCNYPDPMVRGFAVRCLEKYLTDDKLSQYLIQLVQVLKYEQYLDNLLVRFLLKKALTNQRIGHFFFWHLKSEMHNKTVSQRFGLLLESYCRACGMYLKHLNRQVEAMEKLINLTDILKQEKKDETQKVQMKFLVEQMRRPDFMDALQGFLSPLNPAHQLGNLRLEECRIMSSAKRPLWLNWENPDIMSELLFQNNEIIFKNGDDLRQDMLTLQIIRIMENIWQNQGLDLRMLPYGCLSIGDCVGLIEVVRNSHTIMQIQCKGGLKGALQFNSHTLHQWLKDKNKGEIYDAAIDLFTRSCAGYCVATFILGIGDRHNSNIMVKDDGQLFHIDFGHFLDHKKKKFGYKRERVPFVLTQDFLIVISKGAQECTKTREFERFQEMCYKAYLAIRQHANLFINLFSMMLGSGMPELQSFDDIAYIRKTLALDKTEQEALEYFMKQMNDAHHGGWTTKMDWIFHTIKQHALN

`CCn1ncc2c(N3CC4CCC(C3)O4)nc(-c3ccc(NC(=O)Nc4ccccc4)cc3)nc21` [Example 46, 1-{4-[1-ethyl-4-(8-oxa-3-azabicyclo[3.2.1]oct-3-yl)-1H-pyrazolo[3,4-d]pyrimidin-6-yl]phenyl}-3-phenylurea]: the IC50 amounted to 0.3 nM on Human mTOR (FLAG-TOR); 68 nM on PI3K [1] (PI3 Kinase α); 1610 nM at PI3K [2] (PI3 Kinase γ); 0.8 nM with prostate line LNCap; 12 nM with breast line MDA468.
For `Cn1ncc2c(N3CC4CCC(C3)O4)nc(-c3ccc(NC(=O)Nc4ccc(S(=O)(=O)CCN5CCCCC5)cc4)cc3)nc21` [Example 240, 1-{4-[1-methyl-4-(8-oxa-3-azabicyclo[3.2.1]oct-3-yl)-1H-pyrazolo[3,4-d]pyrimidin-6-yl]phenyl}-3-{4-[(2-piperidin-1-ylethyl)sulfonyl]phenyl}urea], in that order: 0.305 nM, 116 nM, 916 nM, 1 nM and 8 nM.
The matching figures for `O=C(Nc1ccc(-c2nc(N3CC4CCC(C3)O4)c3cnn(C4CCCCO4)c3n2)cc1)Nc1cccnc1` (stereo not shown) [Example 90, 1-{4-[4-(8-oxa-3-azabicyclo[3.2.1]oct-3-yl)-1-(tetrahydro-2H-pyran-2-yl)-1H-pyrazolo[3,4-d]pyrimidin-6-yl]phenyl}-3-pyridin-3-ylurea]: 0.39 nM, 412 nM, 4330 nM, 12 nM and 60 nM.
The matching figures for `CC(C)OC(=O)N1CCC(n2ncc3c(N4CC5CCC(C4)O5)nc(-c4ccc(NC(=O)Nc5ccncc5)cc4)nc32)CC1` [Example 73, isopropyl 4-[4-(8-oxa-3-azabicyclo[3.2.1]oct-3-yl)-6-{4-[(pyridin-4-ylcarbamoyl)amino]phenyl}-1H-pyrazolo[3,4-d]pyrimidin-1-yl]piperidine-1-carboxylate]: 0.23 nM, 460 nM, 672 nM, 0.9 nM and 9 nM.
Turning to `CC(C)OC(=O)N1CCC(n2ncc3c(N4CC5CCC(C4)O5)nc(-c4ccc(NC(=O)NCCO)cc4)nc32)CC1` [Example 69, isopropyl 4-[6-(4-{[(2-hydroxyethyl)carbamoyl]amino}phenyl)-4-(8-oxa-3-azabicyclo[3.2.1]oct-3-yl)-1H-pyrazolo[3,4-d]pyrimidin-1-yl]piperidine-1-carboxylate], the IC50 on Human mTOR (FLAG-TOR) was determined as 0.17 nM; at PI3K [1] (PI3 Kinase α), 1530 nM; at PI3K [2] (PI3 Kinase γ), 11000 nM; with prostate line LNCap, 100 nM; with breast line MDA468, 195 nM.
As to `O=C(Nc1ccc(-c2nc(N3CC4CCC(C3)O4)c3cnn([C@H]4CC[C@H](O)CC4)c3n2)cc1)NC1CC1` (relative stereo) [Example 403, 1-cyclopropyl-3-{4-[1-(trans-4-hydroxycyclohexyl)-4-(8-oxa-3-azabicyclo[3.2.1]oct-3-yl)-1H-pyrazolo[3,4-d]pyrimidin-6-yl]phenyl}urea], the IC50 against Human mTOR (FLAG-TOR) (setting [3]) is 0.4 nM; at PI3K [1] (setting [4]), 3630 nM; on PI3K [2] (setting [5]), greater than 10000 nM; with prostate line LNCap it was 5 nM; in the assay with breast line MDA468, 180 nM.
Regarding `N#CCCn1ncc2c(N3CC4CCC(C3)O4)nc(-c3ccc(NC(=O)Nc4ccncc4)cc3)nc21` [Example 217, 1-{4-[1-(2-cyanoethyl)-4-(8-oxa-3-azabicyclo[3.2.1]oct-3-yl)-1H-pyrazolo[3,4-d]pyrimidin-6-yl]phenyl}-3-pyridin-4-ylurea], the IC50 against Human mTOR (FLAG-TOR) is 0.17 nM; on PI3K [1] (PI3 Kinase α), 112 nM; at PI3K [2] (PI3 Kinase γ), 348 nM; with prostate line LNCap it was less than 1 nM; in the assay with breast line MDA468, 1 nM.
Take `O=C(Nc1ccc(-c2nc(N3C[C@H]4C[C@@H]3CO4)c3cnn(CC(F)(F)F)c3n2)cc1)NC1CC1` [Example 342, 1-cyclopropyl-3-(4-{4-[(1R,4R)-2-oxa-5-azabicyclo[2.2.1]hept-5-yl]-1-(2,2,2-trifluoroethyl)-1H-pyrazolo[3,4-d]pyrimidin-6-yl}phenyl)urea]: the IC50 is 53 nM against Human mTOR (FLAG-TOR) (setting [3]); 9500 nM at PI3K [1] (setting [4]); greater than 10000 nM at PI3K [2] (setting [5]); 670 nM in the assay on prostate line LNCap; 1000 nM in the assay with breast line MDA468.
The matching figures for `CN1CCN(C2CCC(n3ncc4c(N5CC6CCC(C5)O6)nc(-c5ccc(NC(=O)OCCO)cc5)nc43)CC2)CC1` (stereo not shown) [Example 369, 2-hydroxyethyl (4-{1-[4-(4-methylpiperazin-1-yl)cyclohexyl]-4-(8-oxa-3-azabicyclo[3.2.1]oct-3-yl)-1H-pyrazolo[3,4-d]pyrimidin-6-yl}phenyl)carbamate]: 1.6 nM, 3140 nM, 11900 nM, 220 nM and 750 nM.
The matching figures for `CN1CCN(Cc2cc3nc(-c4ccc(NC(=O)Nc5ccncc5)cc4)nc(N4CC5CCC(C4)O5)c3s2)CC1` [Example 427, 1-(4-{6-[(4-methylpiperazin-1-yl)methyl]-4-(8-oxa-3-azabicyclo[3.2.1]oct-3-yl)thieno[3,2-d]pyrimidin-2-yl}phenyl)-3-pyridin-4-ylurea]: 3.7 nM, 86 nM, 1270 nM, 200 nM and 390 nM.
In the case of `CN1CCN(c2ccc(NC(=O)Nc3ccc(-c4nc(N5CC6CCC(C5)O6)c5cnn(C)c5n4)cc3)cn2)CC1` [Example 235, 1-{4-[1-methyl-4-(8-oxa-3-azabicyclo[3.2.1]oct-3-yl)-1H-pyrazolo[3,4-d]pyrimidin-6-yl]phenyl}-3-[6-(4-methylpiperazin-1-yl)pyridin-3-yl]urea], the IC50 is 0.625 nM at Human mTOR (FLAG-TOR); 187 nM on PI3K [1] (PI3 Kinase α); 1060 nM at PI3K [2] (PI3 Kinase γ); 3 nM in the assay with prostate line LNCap; 68 nM with breast line MDA468.
For the molecule `O=C(Nc1ccc(OCCO)cc1)Nc1ccc(-c2nc(N3CC4CCC(C3)O4)c3cnn(CC(F)(F)F)c3n2)cc1` [Example 263, 1-[4-(2-hydroxyethoxy)phenyl]-3-{4-[4-(8-oxa-3-azabicyclo[3.2.1]oct-3-yl)-1-(2,2,2-trifluoroethyl)-1H-pyrazolo[3,4-d]pyrimidin-6-yl]phenyl}urea], the IC50 at Human mTOR (FLAG-TOR) was 0.215 nM; on PI3K [1] (PI3 Kinase α) it was 147 nM; at PI3K [2] (PI3 Kinase γ), 10400 nM; with prostate line LNCap, less than 1 nM; in the assay with breast line MDA468, 5 nM.
The matching figures for `CC(C)C(=O)N1CCC(n2ncc3c(N4CC5CCC(C4)O5)nc(-c4ccc(NC(=O)Nc5ccncc5)cc4)nc32)CC1` [Example 89, 1-{4-[1-(1-isobutyrylpiperidin-4-yl)-4-(8-oxa-3-azabicyclo[3.2.1]oct-3-yl)-1H-pyrazolo[3,4-d]pyrimidin-6-yl]phenyl}-3-pyridin-4-ylurea]: 0.26 nM, 301 nM, 2380 nM, 15 nM and 63 nM.
For `CCn1ncc2c(N3CC4CCC(C3)O4)nc(-c3ccc(NC(=O)NCC4CCN(C)CC4)cc3)nc21` [Example 226, 1-{4-[1-ethyl-4-(8-oxa-3-azabicyclo[3.2.1]oct-3-yl)-1H-pyrazolo[3,4-d]pyrimidin-6-yl]phenyl}-3-[(1-methylpiperidin-4-yl)methyl]urea], in that order: 230 nM, 4150 nM, greater than 10000 nM, 700 nM and 1300 nM.
For `COC(=O)Nc1ccc(-c2nc(N3CC4CCC(C3)O4)c3cnn(C)c3n2)cc1` [Example 60, methyl {4-[1-methyl-4-(8-oxa-3-azabicyclo[3.2.1]oct-3-yl)-1H-pyrazolo[3,4-d]pyrimidin-6-yl]phenyl}carbamate], in that order: 28 nM, 3320 nM, greater than 10000 nM, 1050 nM and 6800 nM.
On to `COC(=O)Nc1ccc(-c2nc(N3CC4CCC(C3)O4)c3sccc3n2)cc1` [Example 416, methyl {4-[4-(8-oxa-3-azabicyclo[3.2.1]oct-3-yl)thieno[3,2-d]pyrimidin-2-yl]phenyl}carbamate], for which the IC50 is 8.6 nM at Human mTOR (FLAG-TOR) (setting [3]); 6200 nM at PI3K [1] (setting [4]); greater than 10000 nM on PI3K [2] (setting [5]); 1850 nM in the assay with prostate line LNCap; 9100 nM in the assay with breast line MDA468.
As to `N#CCCn1ncc2c(N3CC4CCC(C3)O4)nc(-c3ccc(NC(=O)NC4CC4)cc3)nc21` [Example 215, 1-{4-[1-(2-cyanoethyl)-4-(8-oxa-3-azabicyclo[3.2.1]oct-3-yl)-1H-pyrazolo[3,4-d]pyrimidin-6-yl]phenyl}-3-cyclopropylurea], the IC50 is 1.35 nM at Human mTOR (FLAG-TOR); 3600 nM at PI3K [1] (PI3 Kinase α); greater than 10000 nM on PI3K [2] (PI3 Kinase γ); 78 nM in the assay on prostate line LNCap; 800 nM with breast line MDA468.
